Measurements reported in patent US20210254000A1, “PROCESS FOR PRODUCING A T CELL COMPOSITION” (Juno Therapeutics, Inc., priority 2017, published 2021).

Tests used:
Type in all cases: cell-based, human
[1] = test system: anti-CD19 CAR+ T cells; experiment: Chronic stimulation assay with anti-ID conjugated beads (14 days); settings: inhibitor present from initiation of stimulation; for primary or secondary cytolytic response: 3:1 effector:target cell ratio; for primary or secondary responses: ability of CAR-T cell compositions to produce cytokines: at thaw or after 14 day anti-ID bead stimulation, K562-CD19 1:1
Source text: Separate compositions of CD4+ and CD8+ cells were isolated from human donors, stimulated by activation with anti-CD3/anti-CD28 magnetic beads and transduced with a viral vector encoding an anti-CD19 CAR having an scFv derived from FMC63. Following cultivation under conditions to expand the cells, T cell compositions containing engineered CD4+ and CD8+ T cells from each donor were then separately harvested, formulated, and cryofrozen. The cryofrozen engineered CD4+ and CD8+ T cells were thawed and formulated at a 1:1 ratio of CD4+ and CD8+ T cells from the same donor to generate a T cell composition containing CAR+ T cells. Anti-idiotype (ID) antibody conjugated beads against the anti-CD19 CAR were incubated with cells at a 1:1 bead:cell ratio for 14 days.
Secondary response of CAR-T cells harvested at day 14 following CAR-specific stimulation with anti-ID conjugated beads (Day 14; secondary) was assessed after stimulation with K562-CD19 antigen-expressing target cells at an effector to target ratio of 1:1 (to assess cytokine levels) or 3:1 (to assess cytolytic activity). The primary response of T cells from the T cell composition that had not been incubated with the anti-ID conjugated beads also was determined by similar stimulation with antigen-expressing cells (Day 0; “primary”). To assess cytolytic activity, the target cells were labeled with NucLight Red (NLR) to permit tracking by fluorescent microscopy. Killing activity was assessed by measuring the loss of viable target cells over 72 hours, as determined by loss of fluorescent signal over time by kinetic fluorescence microscopy (using the INCUCYTE® Live Cell Analysis System, Essen Bioscience). Killing index was determined as the inverse of the area under the curve (AUC) for target fluorescence over time. Intracellular cytokine levels of IL-2 and TNF-alpha were assessed by flow cytometry in co-cultured T cells after incubation in the presence of a Golgi Inhibitor. […]
Primary response of CAR-T cell compositions at thaw (no stimulation with anti-ID conjugated beads) or secondary response of CAR-stimulated CAR-T compositions (following 14 day CAR-specific stimulation with anti-ID conjugated beads) was assessed after stimulation with antigen-expressing cells. CAR-T cell compositions were cultured 1:1 with K562-CD19 antigen-expressing cells in the presence of a Golgi Inhibitor, and polyfunctional cytokine production was assessed by flow cytometry following intracellular cytokine staining for IL-2, IFN-gamma and TNF-alpha. A polyfunctional score was determined from cumulative levels of cytokines as determined in CD8+ cells after the data were normalized by scaling within donor cohorts (FIG. 13A). […]

[2] = test system: anti-CD19 CAR-T cells; experiment: CAR-specific expansion with anti-idiotype antibody conjugated beads; settings: anti-idiotype beads 1:1, 15 days; relative to media only
Protocol: Separate compositions of CD4+ and CD8+ cells were isolated from three human donors, activated and transduced with a viral vector encoding an anti-CD19 CAR substantially as described in Example 2. After transduction, the CD4+ and CD8+ T cells derived from each donor were separately incubated for 8 days in the presence of a mTOR kinase inhibitor to expand T cells substantially as described in Example 2, except in the presence of 200 nM PI-103, 1 μM Compound 63, or with DMSO vehicle or media only controls. CD4+ and CD8+ T cells from each donor were then separately harvested, formulated, and cryofrozen. […] Functional activities of the generated anti-CD19 CAR-T cell compositions were assessed.
The ability of the cells to expand following stimulation of the CAR was assessed by incubating cells of the generated anti-CD19 CAR-T cell compositions with beads surface conjugated with an anti-idiotype antibody specific to the anti-CD19 CAR. […] The total live T cells per well was determined by counting cells in the cultures every 5 days (FIG. 8A). The mean area under the curve (AUC) as a function of T cell number over time was calculated relative to the AUC of cells expanded with media only (FIG. 8B).

[3] = test system: CAR-T cells incubated with CD19-expressing target cells; experiment: Intracellular and secreted cytokines of CAR-T cells (mixed CD4+/CD8+ process); settings: for levels of secreted cytokines (IL-2, TNF-alpha, IFN-gamma) in supernatants: 20 hours with CD19-antigen expressing cells, ELISA; for polyfunctional effector cytokine profiles (IL-2, TNF-alpha, IFN-gamma) compared to DMSO: CD8+ and CD4+ subsets, primary or secondary stimulation, golgi inhibitor 5 hours
Protocol: Separate compositions of CD4+ and CD8+ cells were selected from isolated PBMCs from a leukapheresis sample from the same human donor by immunoaffinity based selection, and the selected cell compositions were cryofrozen. The separate compositions of CD4+ and CD8+ T cells were subsequently thawed and mixed at a ratio of 1:1 of viable CD4+ T cells to viable CD8+ T cells. In this study, the mixed CD4+ and CD8+ cell populations were incubated in the presence of Compound 63, PI103 or no inhibitor (DMSO vehicle control) beginning at the initiation of stimulation. In more detail, the mixed CD4+ and CD8+ T cell composition was stimulated (in the presence or absence of an inhibitor, as indicated) in the presence of paramagnetic polystyrene-coated beads with attached anti-CD3 and anti-CD28 antibodies for between 18 to 30 hours, and were then transduced with a lentiviral vector encoding an anti-CD19 CAR. The CAR contained an scFv antigen-binding domain specific for CD19 (derived from FMC63), a CD28 transmembrane region, a 4-1BB costimulatory signaling region, and a CD3-zeta derived intracellular signaling domain. The cells were then expanded in the presence of cytokines typically for approximately 6-7 days. Beginning with stimulation and for the duration of the process, the media contained DMSO (vehicle control), 2 μM PI103 or 1 μM Compound 63. The vehicle control contained DMSO at a volume to match that in the mTOR inhibitor-treated samples. Expanded cells were cryopreserved. For assessment, the cryopreserved CAR-T cells were thawed and washed prior to assessment in assay media without supportive cytokines and without inhibitor or vehicle.
Intracellular cytokine levels were monitored in cells of co-cultures incubated with freshly thawed generated CAR-T cells or CAR-T cells after secondary restimulation with CD19-expressing target cells. CAR-T cells were incubated with target-expressing cells in the presence of golgi inhibitor for 5 hours. Intracellular expression of IL-2, TNF-alpha and IFN-gamma was determined and a polyfunctional score was calculated by gating for cumulative CAR-T cells positive for IL-2 and any combination of IFN-gamma and TNF-alpha. […] Generated CAR-T cells were also cultured with CD19-antigen expressing cells for 20 hours and levels of IL-2, TNF-alpha and IFN-gamma were assessed in cell culture supernatants by ELISA.

Row | Structure (SMILES) | primary or secondary cytolytic response [1] | primary or secondary responses: ability of CAR-T cell compositions to produce cytokines [1] | mean AUC of live T cell number over time compared to DMSO vehicle [2] | levels of secreted cytokines (IL-2, TNF-alpha, IFN-gamma) in supernatants [3] | polyfunctional effector cytokine profiles (IL-2, TNF-alpha, IFN-gamma) compared to DMSO [3]
1 | Oc1cccc(-c2nc(N3CCOCC3)c3oc4ncccc4c3n2)c1 [PI-103, reference compound] | Improvements in primary or secondary cytolytic response | improved primary or secondary responses | larger mean AUC | increased levels of secreted cytokines | improved polyfunctional effector cytokine profiles
2 | CC(C)c1ccccc1-n1c(=O)[nH]c2c(C(N)=O)nc(-c3cccc(O)c3)nc21 [Compound 63, 2-(3-Hydroxyphenyl)-9-(2-isopropylphenyl)-8-oxo-8,9-dihydro-7H-purine-6-carboxamide] | Improvements in primary or secondary cytolytic response | improved primary or secondary responses | larger mean AUC | increased levels of secreted cytokines | improved polyfunctional effector cytokine profiles
